Target: T1, soluble guanylate cyclase (sGC) (Homo sapiens, UniProt Q02108+Q02153)
T1 construct: endogenously expressing soluble guanylate cyclase (sGC); endogenous in cells; host or cells: HEK293
T1 sequence (Q02153 1-619): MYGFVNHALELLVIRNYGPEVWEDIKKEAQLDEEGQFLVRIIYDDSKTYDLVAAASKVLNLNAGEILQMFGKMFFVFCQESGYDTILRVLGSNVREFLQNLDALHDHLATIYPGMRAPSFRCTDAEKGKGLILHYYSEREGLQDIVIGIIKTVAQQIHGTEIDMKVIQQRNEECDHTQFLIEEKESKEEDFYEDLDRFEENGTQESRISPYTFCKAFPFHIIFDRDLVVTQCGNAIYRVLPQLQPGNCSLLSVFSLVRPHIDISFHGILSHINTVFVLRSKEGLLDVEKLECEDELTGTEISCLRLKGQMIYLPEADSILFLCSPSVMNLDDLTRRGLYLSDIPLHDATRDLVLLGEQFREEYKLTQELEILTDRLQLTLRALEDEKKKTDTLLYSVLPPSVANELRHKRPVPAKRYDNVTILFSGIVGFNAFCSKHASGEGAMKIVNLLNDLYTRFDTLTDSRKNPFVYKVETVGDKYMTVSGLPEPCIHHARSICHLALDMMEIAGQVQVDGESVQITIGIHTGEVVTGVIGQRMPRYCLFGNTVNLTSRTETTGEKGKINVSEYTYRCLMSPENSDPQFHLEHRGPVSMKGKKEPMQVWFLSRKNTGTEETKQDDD
T1 sequence (Q02108 1-690): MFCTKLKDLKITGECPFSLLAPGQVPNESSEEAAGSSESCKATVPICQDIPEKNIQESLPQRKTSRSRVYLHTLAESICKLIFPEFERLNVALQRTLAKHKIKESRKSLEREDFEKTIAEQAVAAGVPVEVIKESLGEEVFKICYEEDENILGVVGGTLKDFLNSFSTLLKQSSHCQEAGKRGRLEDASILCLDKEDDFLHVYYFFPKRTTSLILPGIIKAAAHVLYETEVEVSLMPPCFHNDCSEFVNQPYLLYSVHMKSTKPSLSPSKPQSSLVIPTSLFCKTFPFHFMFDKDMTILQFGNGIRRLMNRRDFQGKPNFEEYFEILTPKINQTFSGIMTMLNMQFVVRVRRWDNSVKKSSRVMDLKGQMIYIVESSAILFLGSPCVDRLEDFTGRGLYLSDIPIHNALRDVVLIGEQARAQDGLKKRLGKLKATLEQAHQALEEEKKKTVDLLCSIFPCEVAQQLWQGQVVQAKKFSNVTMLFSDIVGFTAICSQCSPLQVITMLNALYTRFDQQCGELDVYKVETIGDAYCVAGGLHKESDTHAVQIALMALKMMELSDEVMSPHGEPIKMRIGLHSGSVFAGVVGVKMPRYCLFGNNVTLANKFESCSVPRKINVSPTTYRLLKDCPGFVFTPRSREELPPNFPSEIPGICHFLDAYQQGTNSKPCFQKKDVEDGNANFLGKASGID
Test: sGC-HEK-cGMP assay, LC/MS detection, updated conditions with DETA-NONOate (Example 2B)
Format: cell-based
Settings: read-out: sGC_HEK_LCMS EC50/IC50 Abs (Norm) (nM) Binned
Experimental: Human embryonic kidney cells (HEK293), endogenously expressing soluble guanylate cyclase (sGC), were used to evaluate the activity of test compounds. Compounds stimulating the sGC enzyme should cause an increase in the intracellular concentration of cGMP. HEK 293 cells were seeded in Dulbecco's Modification of Eagle's Medium supplemented with fetal bovine serum (10% final) and penicillin (100 U/mL)/streptomycin (100 μg/mL) in a 50 μL volume at a density of 1.5×10^4 cells/well in a poly-D-lysine coated 384 well flat bottom plate. Cells were incubated overnight at 37° C. in a humidified chamber with 5% CO2. Medium was aspirated and cells were washed with 1× Hank's Buffered Saline Salt Solution (50 μL). Cells were then incubated for 15 minutes at 37° C. with 50 μL of a 0.5 mM 3-isobutyl-1-methylxanthine (IBMX) solution. Test article and Diethylenetriamine NONOate (DETA-NONOate) solutions (x μM concentration for test article solution and 10 μM concentration for DETA-NONOate solution; wherein x is one of the following concentrations);
were then added to the assay mixture and the resulting mixture incubated at 37° C. for 20 minutes. […]
cGMP concentrations were determined from each sample using the LCMS conditions below (Table 2B) and calculated standard curve. […]

Row | EC50 | SMILES
1 | > 1000 nM | CN(C)CCOc1nc(-c2cc(-c3ccon3)n(Cc3ccccc3F)n2)ncc1F [Compound I-2]
2 | 100 to 1000 nM | OCCOc1nc(-c2cc(-c3ccon3)n(Cc3ccccc3F)n2)ncc1F [Compound I-1]

Reference: patent publication US20170298055A1, “sGC STIMULATORS” (IRONWOOD PHARMACEUTICALS, INC., priority 2014, published 2017)
